# Measured values taken from ChEMBL document CHEMBL5550206, “Identification of 6-Fluorine-Substituted Coumarin Analogues as POLRMT Inhibitors with High Potency and Safety for Treatment of Pancreatic Cancer” (J Med Chem, 2024).
# The source made the active and inactive calls. The calls are words filed in the database; no cut-off is given here.
# Tests used:
# [1] = tested on: MIA PaCa-2; experiment: Potency index, ratio of IMT1B IC50 to test compound […] for antiproliferative activity against human MIA PaCa-2 cells assessed as cell viability measured after 168 hrs incubation by SRB assay; type: functional
# [2] = target: DNA-directed RNA polymerase, mitochondrial (Homo sapiens) (UniProt O00411); experiment: Inhibition of human POLRMT in human MIA PaCa-2 cells assessed as mitochondria coded ubiquinone oxidoreductase core subunit 1 (ND I) transcript level at 500 nM measured after 24 hrs by RT-qPCR analysis relative to control; set-up: scale not given: the % may be the effect or the level left
# Sequence of DNA-directed RNA polymerase, mitochondrial (Homo sapiens) (O00411 whole entry): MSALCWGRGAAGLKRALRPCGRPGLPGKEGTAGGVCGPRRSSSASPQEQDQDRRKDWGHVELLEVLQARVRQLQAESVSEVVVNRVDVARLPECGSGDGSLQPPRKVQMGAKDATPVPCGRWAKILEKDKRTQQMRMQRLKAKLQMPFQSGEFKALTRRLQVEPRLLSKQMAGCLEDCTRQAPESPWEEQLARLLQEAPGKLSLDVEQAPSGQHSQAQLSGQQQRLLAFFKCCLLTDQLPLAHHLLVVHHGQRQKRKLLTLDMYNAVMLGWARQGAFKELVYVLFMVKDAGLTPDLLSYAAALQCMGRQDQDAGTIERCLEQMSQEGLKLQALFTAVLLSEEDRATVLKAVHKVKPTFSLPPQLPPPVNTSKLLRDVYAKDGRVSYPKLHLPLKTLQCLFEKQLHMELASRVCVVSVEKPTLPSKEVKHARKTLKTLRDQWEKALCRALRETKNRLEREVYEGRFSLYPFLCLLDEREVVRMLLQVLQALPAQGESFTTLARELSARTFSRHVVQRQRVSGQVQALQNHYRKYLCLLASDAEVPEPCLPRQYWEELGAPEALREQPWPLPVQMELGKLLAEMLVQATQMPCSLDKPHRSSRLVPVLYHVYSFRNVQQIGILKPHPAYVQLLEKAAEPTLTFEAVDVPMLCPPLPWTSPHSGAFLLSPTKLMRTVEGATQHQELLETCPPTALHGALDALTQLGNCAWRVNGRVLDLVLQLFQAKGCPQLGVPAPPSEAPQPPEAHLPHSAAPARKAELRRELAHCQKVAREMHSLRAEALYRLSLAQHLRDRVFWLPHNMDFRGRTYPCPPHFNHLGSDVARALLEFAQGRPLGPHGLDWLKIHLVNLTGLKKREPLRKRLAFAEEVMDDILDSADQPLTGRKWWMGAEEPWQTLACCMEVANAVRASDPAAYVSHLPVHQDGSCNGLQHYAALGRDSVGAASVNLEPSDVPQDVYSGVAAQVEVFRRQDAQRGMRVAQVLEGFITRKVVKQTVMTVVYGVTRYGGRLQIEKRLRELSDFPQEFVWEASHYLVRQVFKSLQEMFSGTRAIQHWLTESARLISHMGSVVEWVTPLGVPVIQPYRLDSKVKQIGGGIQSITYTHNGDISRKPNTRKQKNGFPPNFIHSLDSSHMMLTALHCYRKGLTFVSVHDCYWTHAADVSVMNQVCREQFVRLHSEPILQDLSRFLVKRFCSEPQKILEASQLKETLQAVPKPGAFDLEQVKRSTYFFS
# [3] = tested on: MIA PaCa-2; experiment: Antiproliferative activity against human MIA PaCa-2 cells assessed as cell viability measured after 168 hrs incubation by SRB assay; type: functional, cell-based; settings: MIA PaCa-2, 168 h
# [4] = Toxicity in BALB/c mouse xenografted with human MIA PaCa-2 cells assessed as pathological change in heart at 100 mg/kg, iv once daily for 25 consecutive day after 2 weeks of cells injection by H and E staining based optical microscopic analysis; type: organism-based; settings: in vivo, 336 h
# [5] = Toxicity in BALB/c mouse xenografted with human MIA PaCa-2 cells assessed as pathological change in lung at 100 mg/kg, iv once daily for 25 consecutive day after 2 weeks of cells injection by H and E staining based optical microscopic analysis; type: organism-based; settings: in vivo, 336 h
# [6] = Toxicity in BALB/c mouse xenografted with human MIA PaCa-2 cells assessed as pathological change in liver at 100 mg/kg, iv once daily for 25 consecutive day after 2 weeks of cells injection by H and E staining based optical microscopic analysis; type: organism-based; settings: in vivo, 336 h
# [7] = tested on: MIA PaCa-2; experiment: In vivo antitumor activity against human MIA PaCa-2 cells xenografted in BALB/c mouse assessed as reduction in tumor weight at 100 mg/kg, iv once daily for 25 consecutive day after 2 weeks of cells injection relative to control; type: functional; settings: MIA PaCa-2, 600 h, time 25 day
# [8] = tested on: MIA PaCa-2; experiment: Induction of intracellular ROS generation in human MIA PaCa-2 cells at 0.1 to 5 uM incubated for 96 hrs by DCFH-DA staining based flow cytometry; type: functional, cell-based; settings: dose 0.1-5 µM
# [9] = tested on: MIA PaCa-2; experiment: Reduction in number of mitochondria in human MIA PaCa-2 cells measured after 96 hrs by Mito-Tracker Green and DAPI staining based assay; type: functional, cell-based; settings: dose 10-1000 nM
# [10] = Antiproliferative activity against HUVEC cells assessed as cell viability measured after 168 hrs incubation by SRB assay; type: toxicity, cell-based; settings: human
# [11] = Antiproliferative activity against human […] cells assessed as cell viability measured after 168 hrs incubation by SRB assay; type: functional, cell-based
# [12] = Toxicity in BALB/c mouse xenografted with human MIA PaCa-2 cells assessed as pathological change in kidney at 100 mg/kg, iv once daily for 25 consecutive day after 2 weeks of cells injection by H and E staining based optical microscopic analysis; type: organism-based; settings: in vivo, 336 h
# [13] = tested on: MIA PaCa-2; experiment: Effect on mitochondrial membrane potential loss in human MIA PaCa-2 cells assessed as change in membrane potential at 0.1 to 5 uM incubated for 96 hrs by JC-1 staining based flow cytometry analysis; type: functional, cell-based; settings: dose 0.1-5 µM
# [14] = tested on: PANC-1; experiment: Antiproliferative activity against human PANC-1 cells assessed as cell viability measured after 168 hrs incubation by SRB assay; type: functional, cell-based; settings: PANC-1, 168 h
# [15] = tested on: CAPAN-1; experiment: Antiproliferative activity against human CAPAN-1 cells assessed as cell viability measured after 168 hrs incubation by SRB assay; type: functional, cell-based; settings: CAPAN-1, 168 h
# [16] = Toxicity in BALB/c mouse xenografted with human MIA PaCa-2 cells assessed as pathological change in spleen at 100 mg/kg, iv once daily for 25 consecutive day after 2 weeks of cells injection by H and E staining based optical microscopic analysis; type: organism-based; settings: in vivo, 336 h
Compound,Activity [2],IC50 [3],further results
CCN(CC)C(=O)[C@@H](C)Oc1cc2oc(=O)cc(-c3ccc(F)cc3Cl)c2cc1F,13%,44 nM,Ratio IC50 [1]: 3
C[C@@H](Oc1cc2oc(=O)cc(-c3ccc(F)cc3Cl)c2cc1F)C(=O)NCC(F)F,22%,139 nM,
C[C@@H](Oc1cc2oc(=O)cc(-c3ccc(F)cc3Cl)c2cc1F)C(=O)N1CCCCC1,16%,78 nM,
CCN(CC)C(=O)[C@@H](C)Oc1cc2oc(=O)cc(-c3ccccc3)c2cc1F,44%,682 nM,
C[C@@H](Oc1cc2oc(=O)cc(-c3ccc(F)cc3Cl)c2cc1F)C(=O)N1CCC[C@H](C(=O)O)C1,22%,145 nM,
CCN(CC)C(=O)[C@@H](C)Oc1cc2oc(=O)cc(-c3ccc(Cl)cc3)c2cc1F,55%,2240 nM,
CCN(CC)C(=O)[C@@H](C)Oc1cc2oc(=O)cc(-c3cccc(Cl)c3)c2cc1F,60%,3240 nM,
C[C@@H](Oc1cc2oc(=O)cc(-c3ccc(F)cc3Cl)c2cc1F)C(=O)N(C)C1COC1,50%,1690 nM,
CO[C@H]1CC[C@@H](NC(=O)[C@@H](C)Oc2cc3oc(=O)cc(-c4ccc(F)cc4Cl)c3cc2F)CC1,52%,2230 nM,
C[C@@H](Oc1cc2oc(=O)cc(-c3ccc(F)cc3Cl)c2cc1F)C(=O)N1CCC1,33%,493 nM,
CCN(CC)C(=O)[C@@H](C)Oc1cc2oc(=O)cc(-c3ccccc3F)c2cc1F,30%,400 nM,
CCN(CC)C(=O)[C@@H](C)Oc1cc2oc(=O)cc(-c3ccccc3OC)c2cc1F,48%,1130 nM,
COc1cc2c(-c3ccc(F)cc3Cl)cc(=O)oc2cc1O[C@H](C)C(=O)N1CCC[C@H](C(=O)O)C1,67%,> 5000 nM,
CCN(CC)C(=O)[C@@H](C)Oc1cc2oc(=O)cc(-c3ccccc3Cl)c2cc1F,10%,14 nM,
C[C@@H](Oc1cc2oc(=O)cc(-c3ccc(F)cc3Cl)c2cc1F)C(=O)N1CCCC1,35%,456 nM,
CC1CCN(C(=O)[C@@H](C)Oc2cc3oc(=O)cc(-c4ccc(F)cc4Cl)c3cc2F)CC1,31%,486 nM,
C[C@@H](Oc1cc2oc(=O)cc(-c3ccc(F)cc3Cl)c2cc1F)C(=O)N1CCCOCC1,15%,72 nM,
C[C@@H](Oc1cc2oc(=O)cc(-c3ccc(F)cc3Cl)c2cc1F)C(=O)N1CCC(F)(F)CC1,28%,377 nM,
C[C@@H](Oc1cc2oc(=O)cc(-c3ccc(F)cc3Cl)c2cc1Cl)C(=O)N1CCC[C@H](C(=O)O)C1,30%,,
C[C@@H](Oc1ccc2c(-c3ccc(F)cc3Cl)cc(=O)oc2c1)C(=O)N1CCC[C@H](C(=O)O)C1,23%,159 nM,Activity [4]: Non-Toxic; Activity [5]: Non-Toxic; Activity [6]: Non-Toxic; inhibition in vivo at 100 mg/kg [7]: 44.8%; Activity [8]: inactive; Activity [9]: Dose-Dependent Effect; IC50 at 168 h [10]: > 50000 nM; IC50 [11]: 67 nM; Activity [12]: Non-Toxic; Activity [13]: inactive; IC50 [14]: 1570 nM; IC50 [15]: 1350 nM; Activity [16]: Non-Toxic
C[C@@H](Oc1cc2oc(=O)cc(-c3ccc(F)cc3Cl)c2cc1F)C(=O)N1CCCC(C#N)C1 (stereo partly drawn),26%,305 nM,
C[C@@H](Oc1cc2oc(=O)cc(-c3ccc(F)cc3Cl)c2cc1F)C(=O)N1CCC(Cl)CC1,34%,523 nM,
C[C@@H](Oc1cc(Cl)c2c(-c3ccc(F)cc3Cl)cc(=O)oc2c1)C(=O)N1CCC[C@H](C(=O)O)C1,85%,> 5000 nM,
CCN(CC)C(=O)[C@@H](C)Oc1cc2oc(=O)cc(-c3cccc4ccccc34)c2cc1F,42%,739 nM,
C[C@@H](Oc1cc2oc(=O)cc(-c3ccc(F)cc3Cl)c2cc1F)C(=O)N(C)C,25%,171 nM,
C[C@@H](Oc1cc2oc(=O)cc(-c3ccc(F)cc3Cl)c2cc1F)C(=O)NCCC#N,51%,1160 nM,
CC(C)c1cc2c(-c3ccc(F)cc3Cl)cc(=O)oc2cc1O[C@H](C)C(=O)N1CCC[C@H](C(=O)O)C1,46%,1090 nM,
C[C@@H](Oc1cc2oc(=O)cc(-c3ccc(F)cc3Cl)c2cc1F)C(=O)N1CCC(F)CC1,19%,115 nM,
C[C@@H](Oc1cc2oc(=O)cc(-c3ccc(F)cc3Cl)c2cc1F)C(=O)NCC1CC1,26%,294 nM,
C[C@@H](Oc1ccc2c(-c3ccc(F)cc3Cl)cc(=O)oc2c1Cl)C(=O)N1CCC[C@H](C(=O)O)C1,119%,> 5000 nM,
